Key:
[1] = target: T1, c-Abl kinase (His-tagged kinase domain of c-Abl) (Homo sapiens, UniProt P00519); test: c-Abl protein-tyrosine kinase in vitro enzyme filter binding assay; assay type: biochemical; conditions: % inhibition at 10 μM
T1 construct: The His-tagged kinase domain of c-Abl is cloned and expressed in the baculovirus/Sf9 system; His tag; made in house; host or cells: Sf9 insect cells (baculovirus)
T1 sequence (P00519 242-493 limits assumed): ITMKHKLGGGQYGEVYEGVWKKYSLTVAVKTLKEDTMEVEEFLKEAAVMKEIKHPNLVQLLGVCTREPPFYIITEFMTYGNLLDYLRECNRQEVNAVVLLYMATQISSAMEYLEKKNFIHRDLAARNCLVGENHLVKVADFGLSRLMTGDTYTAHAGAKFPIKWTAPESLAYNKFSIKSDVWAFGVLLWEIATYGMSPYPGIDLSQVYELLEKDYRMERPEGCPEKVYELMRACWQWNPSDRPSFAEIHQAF
Description: An in vitro enzyme assay is performed in 96-well plates as a filter binding assay as described by Geissler et al. in Cancer Res. 1992; 52:4492-4498, with the following modifications. The His-tagged kinase domain of c-Abl is cloned and expressed in the baculovirus/Sf9 system as described by Bhat et al. in J. Biol. Chem. 1997; 272:16170-16175. A protein of 37 kD (c-Abl kinase) is purified by a two-step procedure over a Cobalt metal chelate column followed by an anion exchange column with a yield of 1-2 mg/L of Sf9 cells (Bhat et al., reference cited). The purity of the c-Abl kinase is >90% as judged by SDS-PAGE after Coomassie blue staining. The assay contains (total volume of 30 μL): c-Abl kinase (50 ng), 20 mM Tris·HCl, pH 7.5, 10 mM MgCl2, 10 μM Na3VO4, 1 mM DTT and 0.06 μCi/assay [γ^33 P]-ATP (5 μM ATP) using 30 μg/mL poly-Ala,Glu,Lys,Tyr-6:2:5:1 (Poly-AEKY, Sigma P1152) in the presence of 1% DMSO. Reactions are terminated by adding 10 μL of 250 mM EDTA and 30 μL of the reaction mixture is transferred onto Immobilon-PVDF membrane (Millipore, Bedford, Mass., USA) previously soaked for 5 min with methanol, rinsed with water, then soaked for 5 min with 0.5% H3PO4 and mounted on vacuum manifold with disconnected vacuum source. After spotting all samples, vacuum is connected and each well rinsed with 200 μL 0.5% H3PO4. Membranes are removed and washed on a shaker with 0.5% H3PO4 (4 times) and once with ethanol. Membranes are counted after drying at ambient temperature, mounting in Packard TopCount 96-well frame, and addition of 10 μL/well of Microscint™ (Packard).
Enzymatic (c-Abl, KDR, Flt3) data are given on Table 17 (% inhibition at 10 μM). (Measurements are made as described above in the general description).

[2] = target: T2, human VEGF-R2 receptor (KDR) (Homo sapiens, UniProt P35968); test: Inhibition of VEGF-induced VEGF-R2 (KDR) autophosphorylation in transfected CHO cells, sandwich ELISA; assay type: cell-based; conditions: % inhibition at 10 μM
T2 construct: expressed in transfected cells
T2 sequence (P35968 20-1356): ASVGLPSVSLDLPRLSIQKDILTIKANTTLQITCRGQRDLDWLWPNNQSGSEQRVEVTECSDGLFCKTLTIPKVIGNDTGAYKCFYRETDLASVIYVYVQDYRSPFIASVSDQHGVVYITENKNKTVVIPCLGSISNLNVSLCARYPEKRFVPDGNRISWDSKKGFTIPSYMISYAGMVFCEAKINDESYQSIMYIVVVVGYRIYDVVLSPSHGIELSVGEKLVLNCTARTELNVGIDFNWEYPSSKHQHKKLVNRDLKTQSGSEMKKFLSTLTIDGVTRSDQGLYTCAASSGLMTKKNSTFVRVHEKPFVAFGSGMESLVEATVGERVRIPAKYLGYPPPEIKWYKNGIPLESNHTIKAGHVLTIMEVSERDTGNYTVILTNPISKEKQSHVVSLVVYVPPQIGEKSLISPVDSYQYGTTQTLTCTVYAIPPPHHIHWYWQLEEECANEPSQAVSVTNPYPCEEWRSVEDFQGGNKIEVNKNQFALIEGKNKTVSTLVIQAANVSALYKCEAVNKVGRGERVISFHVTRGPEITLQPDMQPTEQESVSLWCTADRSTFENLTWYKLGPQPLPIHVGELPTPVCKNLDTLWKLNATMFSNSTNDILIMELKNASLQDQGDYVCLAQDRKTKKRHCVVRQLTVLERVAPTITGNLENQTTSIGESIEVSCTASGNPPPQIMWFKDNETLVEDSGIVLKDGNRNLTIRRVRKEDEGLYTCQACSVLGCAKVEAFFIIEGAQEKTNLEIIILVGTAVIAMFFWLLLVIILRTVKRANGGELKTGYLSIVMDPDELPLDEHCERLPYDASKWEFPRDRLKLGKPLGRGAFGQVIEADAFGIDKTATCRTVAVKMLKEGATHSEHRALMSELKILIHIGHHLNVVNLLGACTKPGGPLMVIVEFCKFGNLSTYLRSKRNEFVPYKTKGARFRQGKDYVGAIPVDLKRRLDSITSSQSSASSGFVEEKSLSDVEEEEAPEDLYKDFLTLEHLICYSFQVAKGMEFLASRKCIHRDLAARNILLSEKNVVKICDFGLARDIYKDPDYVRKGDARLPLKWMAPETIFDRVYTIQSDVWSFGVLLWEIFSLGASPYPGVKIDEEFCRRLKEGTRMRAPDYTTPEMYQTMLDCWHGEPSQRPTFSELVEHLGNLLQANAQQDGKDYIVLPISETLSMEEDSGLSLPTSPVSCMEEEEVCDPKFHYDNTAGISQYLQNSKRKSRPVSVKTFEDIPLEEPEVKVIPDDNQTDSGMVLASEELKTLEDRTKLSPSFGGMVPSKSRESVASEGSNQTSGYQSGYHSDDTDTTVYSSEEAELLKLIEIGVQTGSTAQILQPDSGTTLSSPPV
Description: The inhibition of VEGF-induced receptor autophosphorylation can be confirmed with a further in vitro experiments in cells such as transfected CHO cells, which permanently express human VEGF-R2 receptor (KDR), are seeded in complete culture medium (with 10% fetal calf serum=FCS) in 6-well cell-culture plates and incubated at 37° C. under 5% CO2 until they show about 80% confluency. The compounds to be tested are then diluted in culture medium (without FCS, with 0.1% bovine serum albumin) and added to the cells. (Controls comprise medium without test compounds). After two hours of incubation at 37° C., recombinant VEGF is added; the final VEGF concentration is 20 ng/ml. After a further five minutes incubation at 37° C., the cells are washed twice with ice-cold PBS (phosphate-buffered saline) and immediately lysed in 100 μl lysis buffer per well. The lysates are then centrifuged to remove the cell nuclei, and the protein concentrations of the supernatants are determined using a commercial protein assay (BIORAD). The lysates can then either be immediately used or, if necessary, stored at −20° C.
The plates are then washed and the remaining free protein-binding sites are saturated with 3% TopBlock® (Juro, Cat. # TB232010) in phosphate buffered saline with Tween 20® (polyoxyethylen(20)sorbitane monolaurate, ICI/Uniquema) (PBST). The cell lysates (20 μg protein per well) are then incubated in these plates overnight at 4° C. together with an antiphosphotyrosine antibody coupled with alkaline phosphatase (PY20:AP from Zymed). […] The luminescence is measured in a Packard Top Count Microplate Scintillation Counter. The difference between the signal of the positive control (stimulated with VEGF) and that of the negative control (not stimulated with VEGF) corresponds to VEGF-induced VEGF-R2 phosphorylation (=100%). The activity of the tested substances is calculated as percent inhibition of VEGF-induced VEGF-R2 phosphorylation, wherein the concentration of substance that induces half the maximum inhibition is defined as the IC50 (inhibitory dose for 50% inhibition). […]

Row | SMILES | melting point | c-Abl (% at 10 μM) [1] | KDR trans (% at 10 μM) [2]
1 | CCc1ccc(NC(=O)Nc2ccc(Oc3ccncc3)cc2)cc1 [Example 1, N-(4-pyridin-4-yl-oxy-phenyl)-N′-(4-ethyl-phenyl)-urea] | 166.5 to 168 °C | 62% | 100%
2 | O=C(Nc1ccc(Oc2ccncc2)cc1)Nc1cccc(C(F)(F)F)c1 [Example 2] |  | 84% | 99%
3 | CCCc1ccc(NC(=O)Nc2ccc(Oc3ccncc3)cc2)cc1 [Example 3] |  | 58% | 25%
4 | O=C(Nc1ccc(Oc2cc(Nc3ccc(O)cc3)ncn2)cc1)Nc1cccc(C(F)(F)F)c1 [Example 22, N-(4-(4-(4-hydroxyphenylamino)-pyrimidin-6-yl)-oxyphenyl)-N′-(3-trifluoromethylphenyl)-urea] | 142 °C (dec.) |  | 
5 | COc1cc(NC(=O)Nc2ccc(Oc3ccncc3)cc2)cc(C(F)(F)F)c1 [Example 37, 1-(3-Methoxy-5-trifluoromethyl-phenyl)-3-[4-(pyridin-4-yloxy)-phenyl]-urea] | 162.5 to 164.5 °C |  | 
6 | CCN(CC)c1ccc(NC(=O)Nc2ccc(Oc3ccncc3)cc2)cc1C(F)(F)F [Example 39] | 60 °C (dec.) |  | 
7 | Cc1ccc(NC(=O)Nc2ccc(Oc3ccncc3)cc2)cc1C(F)(F)F [Example 43, 1-(4-Methyl-3-trifluoromethyl-phenyl)-3-[4-(pyridin-4-yloxy)-phenyl]-urea] | 149 °C (dec.) |  | 
8 | CNc1cc(Oc2ccc(NC(=O)Nc3ccc(C)c(C(F)(F)F)c3)cc2)ncn1 [Example 67] | 202 to 203 °C (dec.) |  | 
9 | Cc1ccc(NC(=O)Nc2ccc(Oc3cc(Cl)ncn3)cc2)cc1C(F)(F)F [Example 76, 1-[4-(6-Chloro-pyrimidin-4-yloxy)-phenyl]-3-(4-methyl-3-trifluoromethyl-phenyl)-urea] | 183 to 184.5 °C |  | 
10 | Cc1ccc(NC(=O)Nc2ccc(Oc3cc(Cl)ncn3)cc2)cc1 [Example 97, 1-[4-(6-Chloro-pyrimidin-4-yloxy)-phenyl]-3-p-tolyl-urea] | 217 to 219 °C |  | 
11 | CCc1cc(Oc2ccc(NC(=O)Nc3ccc(C)cc3)cc2)ncn1 [Example 99, 1-[4-(6-Ethyl-pyrimidin-4-yloxy)phenyl]-3-p-tolyl-urea] | 160 to 162 °C |  | 
12 | CCN1CCN(Cc2cc(NC(=O)Nc3ccc(Oc4cc(Cl)ncn4)cc3)cc(C(F)(F)F)c2)CC1 [Example 134, N-(4-(6-Chloropyrimidin-4-yl-oxy)-phenyl)-N′-{5-trifluoromethyl-3-[(4-ethylpiperazin-1-ylmethyl)]-phenyl}-urea] | 168 to 169 °C |  | 
13 | CN(C)Cc1cc(NC(=O)Nc2ccc(Oc3cc(Cl)ncn3)cc2)cc(C(F)(F)F)c1 [Example 135, N-(4-(6-Chloropyrimidin-4-yl-oxy)-phenyl)-N′-[5-trifluoromethyl-3-(dimethylamino-methyl)-phenyl]-urea] | 154 °C |  | 
14 | O=C(Nc1cccc(C(F)(F)F)c1)N1CCc2cc(Oc3cc(Cl)ncn3)ccc21 [Example 163, 5-(6-Chloro-pyrimidin-4-yloxy)-2,3-dihydro-indole-1-carboxylic acid (3-trifluoromethyl-phenyl)-amide] | 181 °C |  | 

From patent publication US7652022B2, “Diaryl urea derivatives useful for the treatment of protein kinase dependent diseases” (Novartis AG, priority 2002, dated 2010)
